This is an account of results in paper PMC6956158, “In Vitro and In Vivo Assessment of Metabolic Drug Interaction Potential of Dutasteride with Ketoconazole” (Pharmaceutics, 2019).

SMILES strings stand for the structures.

Data set [1] relates to type-2 5AR. Further details: method as in PMID 16964191, PMID 16719800. The following applies: previous in vitro studies; cited from earlier work.
Data set [2] can be described thus: Basic (simple static) model prediction of clinical DUT-KET interaction. Also noted: species or system human. The following applies: clinical prediction from HLM data, R = 1 + Imax,u / Ki. How it is done: Supplementary Materials: In Vitro and In Vivo
Assessment of Metabolic Drug Interaction Potential of Dutasteride with Ketoconazole
Table S1. Previous literatures on bioanalytical methods for DUT using HPLC system coupled with ultraviolet-visible (UV/Vis) and tandem mass (MS/MS) detector.
Detector Matrix Sample Sample Preparation Mobile Phase Conc. Range Validation Ref.
LC-MS/MS Human plasma 300 µL LLE Isocratic 0.1-25 ng/mL Full
LC-MS/MS Human plasma 500 µL LLE Gradient 0.1-25 ng/mL Full
LC-MS/MS Human plasma 500 µL SPE Gradient 1-100 ng/mL Full
LC-MS/MS Human plasma 500 µL SPE Isocratic 0.1-10 ng/mL Full
LC-MS/MS Human plasma 900 µL LLE Isocratic 0.5-50 ng/mL Full
LC-MS/MS Human plasma 1000 µL LLE Gradient 0.05-4 ng/mL Full
LC-MS/MS Human Serum 2000 µL LLE NR 0.025-2.5 ng/mL Partial
LC-MS/MS Human Urine 5000 µL SPE Gradient NR Partial
LC-MS/MS Rat plasma 100 µL LLE Isocratic 1-500 ng/mL Partial
LC-MS/MS Rat plasma 100 µL LLE Isocratic 5-400 ng/mL Partial
HPLC-UV Rat blood 100 µL Deproteinization Gradient NR Partial […]
where the R is the predicted ratio of the AUC of DUT in the presence and absence of KET, the Imax,u is the maximum unbound plasma concentration of KET, and the Ki is the unbound inhibition constant of KET determined in vitro. Since IC50 only was determined in this study, it was converted to Ki using the following equation for competitive inhibition. […]

For data set [3] the following is noted: cited from earlier work.
Data set [4] can be described thus: Blood-to-plasma concentration ratio (RB), blood distribution. Format: in vitro ADME. The following applies: rat, fresh rat blood, 37 °C. The method, then:
(§1) To investigate the metabolic interaction potential between DUT and KET, the disappearance of DUT (5 μM) in RLM and HLM was determined under the absence and presence of KET at various concentrations ranging from 1 to 5000 nM. A microsomal reaction mixture was prepared as follows (total volume: 0.2 mL): 1 mM NADPH, 10 mM MgCl2, substrate (DUT), and inhibitor (KET), RLM or HLM (1 mg/mL), and 50 mM phosphate buffer. At 0 and 90 min after starting the metabolic reaction, a 50 μL aliquot of microsomal incubation mixture was sampled and immediately transferred into a clean 1.5 mL microcentrifuge tube containing 100 μL cold ACN with an internal standard (celecoxib at 400 ng/mL) to stop the metabolic reaction. After vortex mixing and centrifugation at 15,000× g for 10 min, a 100 μL aliquot of the supernatant was stored at −80 °C. The unbound fractions of DUT in rat plasma, RLM, human plasma, and HLM were measured using a rapid equilibrium dialysis (RED) device (Thermo Fisher Scientific, Inc., Waltham, MA, USA) as described in a previous study. […] The fraction unbound was calculated as the ratio of the drug concentrations in the “buffer” chamber to those in the “sample” chamber. The blood-to-plasma concentration ratio (RB) of DUT was determined as described previously. […] The concentrations of DUT in the plasma sample were determined by the validated HPLC analysis.

A short description of data set [5]: NADPH-dependent metabolism (disappearance) of DUT in human liver microsomes. Format: in vitro ADME. Conditions: HLM. The method, then:
In vitro metabolism studies in RLM and HLM were conducted as previously reported with slight modifications. To investigate the NADPH-dependent metabolism (via phase I enzymes including CYPs) of DUT in RLM and HLM, the disappearance of DUT at various concentrations ranging from 1 to 100 μM in the presence of NADPH was determined in RLM and HLM. The substrate (DUT) concentration ([S]; μM) versus the initial metabolic rate (V; pmol/min/mg protein) data were interpreted based on the Michaelis–Menten kinetics, and relevant parameters were estimated by nonlinear regression analysis (GraphPad Prism ver. 5.01; GraphPad Software, San Diego, CA, USA) based on the following Michaelis–Menten equation: V = Vmax × [S]/Km + [S] where Vmax and Km are the maximal metabolic rate and Michaelis–Menten constant, respectively. The intrinsic metabolic clearance (CLint) was calculated by dividing Vmax by Km. The unbound Km (Km,u) was calculated as the Km multiplied by the unbound fraction in microsomes (fu,mic). The unbound CLint (CLint,u) was calculated as the CLint divided by the fu,mic.
To investigate the metabolic interaction potential between DUT and KET, the disappearance of DUT (5 μM) in RLM and HLM was determined under the absence and presence of KET at various concentrations ranging from 1 to 5000 nM. A microsomal reaction mixture was prepared as follows (total volume: 0.2 mL): 1 mM NADPH, 10 mM MgCl2, substrate (DUT), and inhibitor (KET), RLM or HLM (1 mg/mL), and 50 mM phosphate buffer. […] The unbound fractions of DUT in rat plasma, RLM, human plasma, and HLM were measured using a rapid equilibrium dialysis (RED) device (Thermo Fisher Scientific, Inc., Waltham, MA, USA) as described in a previous study. […] The fraction unbound was calculated as the ratio of the drug concentrations in the “buffer” chamber to those in the “sample” chamber. The blood-to-plasma concentration ratio (RB) of DUT was determined as described previously. […] The concentrations of DUT in the plasma sample were determined by the validated HPLC analysis.

Data set [6] is described as follows: Unbound fraction by rapid equilibrium dialysis, human plasma. Format: in vitro ADME. The method, then: as §1
(In general: In equilibrium dialysis only unbound substance equilibrates across the membrane.)

Data set [7] is described as follows: Unbound fraction by rapid equilibrium dialysis, RLM. Format: in vitro ADME, rat. How it is done: as §1
The nature of data set [8]: Unbound fraction by rapid equilibrium dialysis, HLM. Format: in vitro ADME, human. How it is done:
as §1

In the case of `C[C@]12C=CC(=O)N[C@@H]1CC[C@@H]1[C@@H]2CC[C@]2(C)[C@@H](C(=O)Nc3cc(C(F)(F)F)ccc3C(F)(F)F)CC[C@@H]12` [DUT, Dutasteride], the “more potent inhibition of type-2 5AR compared to finasteride” value in data set [1] is recorded as 2.5 fold. Besides, the “R, predicted ratio of the AUC of DUT in the presence and absence of KET” value in data set [2] is listed as 2.88. The “steady-state serum DUT concentration, median” value in data set [3] (healthy humans, 0.5 mg DUT once-daily for more than 6 months) is 38 ng/mL. The terminal half-life result in data set [3] (humans, after reaching a steady state) is “approximately 5 weeks”. Also, in data set [3] (humans), the “unchanged DUT excreted in the urine” value is on record as “trace amounts”. The blood plasma ratio at 60 min, 5 μM in data set [4] (DUT 5 μM alone) was 0.712 ± 0.026; in data set [4] (DUT 5 μM in the presence of KET 5 μM), 0.692 ± 0.036. Moreover, the Vmax in data set [5] (DUT 1 to 100 μM, NADPH) was determined as 47.7 ± 6.3 pmol/min/mg protein. In addition, the Km in data set [5] (human, human liver microsomes, DUT 1 to 100 μM, NADPH) is 51.6 ± 7.3 µM. The same compound returned a microsomal CLint in data set [5] (human, human liver microsomes, Vmax divided by Km) of 0.928 ± 0.069 µL/min/mg. Also, the free fraction (fraction unbound) at 5 μM was determined as 0.0078 in data set [6] (DUT 5 μM, RED device); 0.0856 in data set [7] (Sprague-Dawley, rat, rat liver microsomes, RLM 1 mg/mL, DUT 5 μM, RED device); 0.091 in data set [8] (human, human liver microsomes, DUT 5 μM, RED device). Moreover, the “fraction of unbound DUT, presence versus absence of KET” value was “no significant differences” in data set [6] (DUT and KET 5 μM, n = 5); “no significant differences” in data set [7] (RLM, DUT and KET 5 μM, n = 5); “no significant differences” in data set [8] (DUT and KET 5 μM, n = 5).

As usually defined, the Km is the concentration of substrate that gives half-maximal velocity. Broadly, the microsomal CLint is the rate of metabolic loss divided by the concentration. High values mean rapid turnover, low ones slow turnover. A word on the fraction unbound: it is free concentration divided by total concentration. Read a high fraction unbound as weak binding.
